Experimental data: patent publication US20050221196A1, “Redox shuttle for rechargeable lithium-ion cell” (priority 2004, published 2005)
One block for each molecule: values may come before it.

What was measured:
[1] = Shuttle potential versus sequentially increased charge current in coin cell (Imax)
Text: According to the literature (Richardson et al., J. Electrochem. Soc. Vol. 143, 3992 (1996)) the maximum shuttle current for a singly ionized shuttle is given by Imax=FAD C/d, [1] where F is Faraday's number, A is the electrode area, D is an effective diffusion constant of the shuttle species (taking into account both oxidized and reduced forms of the shuttle), C is the total concentration of the shuttle species and d is the distance between the electrodes. To obtain a large shuttle current, the electrolyte should impart a large diffusion constant, D, to the shuttle and support a high shuttle concentration, C. The shuttle diffusion constant usually will increase as the electrolyte solution viscosity decreases. A variety of charge carrying media may be employed in the electrolyte. Exemplary media are liquids or gels capable of solubilizing sufficient quantities of the lithium salt and the redox chemical shuttle so that a suitable quantity of charge can be transported from the positive electrode to negative electrode. […]
Further testing was carried out in coin cells made using 0.2 M 2,5-di-tert-butyl-1,4-dimethoxybenzene and 0.5 M LiBOB in 1:2 PC:DEC. […] Using cyclic voltammetry, the shuttle diffusion constant was determined to be 1.6×10^−6 cm^2/sec. […]

[2] = Cyclic voltammetry shuttle diffusion constant; assay type: physicochemical
Experimental: Further testing was carried out in coin cells made using 0.2 M 2,5-di-tert-butyl-1,4-dimethoxybenzene and 0.5 M LiBOB in 1:2 PC:DEC. […] For this cell the shuttle was singly ionized, the initially estimated electrode area was 1.3 cm^2 and the initially estimated electrode spacing was defined by the 25 μm separator. Based on measurements of the shuttle potential versus applied current, the effective diffusion constant D was estimated to be about 7×10^−7 cm^2/sec, and the maximum current density carried by the shuttle was estimated to be about 2.3 mA/cm^2. Using cyclic voltammetry, the shuttle diffusion constant was determined to be 1.6×10^−6 cm^2/sec. […] Thus, the effective area was less than 1.3 cm^2 and the effective length was greater than 25 μm.

[3] = Maximum solubility of shuttle in electrolyte, determined visually; assay type: physicochemical; conditions: in the Example 1 and Example 2 electrolyte (0.7 M LiBOB EC:DEC 1:2)
Experimental: Solubility limits were determined visually, after extended mixing.

[4] = Extended shuttle-protected overcharge cycling, LiFePO4/graphite cell, 100% overcharge each cycle; conditions: 0.2 M shuttle, 0.5 M LiBOB in 1:2 PC:DEC
Experimental: Further testing was carried out to evaluate currents up to 1/3 of Imax in extended shuttle-protected overcharge tests. […] The shuttle plateau is near 3.9 V because the graphite electrode is near 0 V vs Li/Li^+ when the Li-ion coin cell is fully charged. The charging current was 0.55 mA, which corresponds to about a C/2-rate for the electrodes of this cell. The shuttle continues to perform well after 200 charge discharge cycles. […] In this case, the shuttle was able to protect against overcharge for about 190 cycles, followed by disappearance of the shuttle effect over the next few cycles. […] The loss of shuttle effect at high C rates may have been due to the Li4/3Ti5/3O4 negative electrode dropping below its plateau potential (1.55 V) before reaching the fully discharged state.

[5] = Shuttle molecules tested in LiFePO4/graphite and LiFePO4/Li4/3Ti5/3O4 coin cells, C/10, 100% overcharge; conditions: 0.1M shuttle, 0.7 M LiBOB PC:DMC:EC:DEC 1:2:1:2
Experimental: A variety of shuttle molecules (obtained from Aldrich Chemical Co. and used without further purification) were tested in LiFePO4/graphite and LiFePO4/Li4/3Ti5/3O4 coin cells. The LiFePO4 was obtained from Phostech Lithium as in Example 1 and the Li4/3Ti5/3O4 was obtained from NEI Corp. (Piscataway, N.J., USA). The graphite used was mesocarbon microbeads (MCMB) heat treated to near 2650° C. Electrodes were made from the active materials 10% by weight Super S carbon black (MMM Carbon, Belgium) and 10% by weight PVDF binder. LiFePO4 and Li4/3Ti5/3O4 electrodes were coated on aluminum foil and MCMB electrodes were coated on copper foil. […] The electrolyte was 0.7 M LiBOB in a 1:2:1:2 by volume mixture of PC:DMC:EC:DEC. The shuttle molecule was added in a concentration of 0.1M. Coin cells were charged using currents corresponding to a normal recharge in 10 hours (C/10) to 200% of their normal charge capacity (100% overcharge) or until a specified upper cut-off potential (normally 4.9V versus Li/Li^+) was reached, which ever occurred first and tested until the shuttle ceased to function. Four shuttles were employed, namely 1,3,5-tri-t-butyl-2-methoxybenzene (Example 9), 5-t-butyl-1,3-dinitro-2-methoxybenzene (Example 10), 2-t-butyl-4,6-dinitro-5-methylanisole (Example 11) and 4-t-butyl-2,6-diaminoanisole (Comparison Example 10). The coin cell test results are set out below in Table 2: […]

- potential at which the shuttle became oxidized at the LiFePO4 positive electrode ([1]; 0.2 M shuttle, 0.5 M LiBOB in 1:2 PC:DEC): about 3.9 V vs Li/Li^+
- effective diffusion constant D (estimated from shuttle potential versus applied current) ([1]; electrode area 1.3 cm^2, 25 μm separator): about 7×10^−7 cm^2/sec
- shuttle diffusion constant [2]: 1.6×10^−6 cm^2/sec
- maximum room temperature solubility [3]: ~90 mM
- shuttle plateau [4]: ~3.9 V
Structure (SMILES): COc1cc(C(C)(C)C)c(OC)cc1C(C)(C)C [2,5-di-tert-butyl-1,4-dimethoxybenzene]

- Potential V, Li/Li^+ [5]: 4.4 V
Structure (SMILES): COc1c(N)cc(C(C)(C)C)cc1N [Comp. Ex. 5, 4-t-butyl-2,6-diaminoanisole, reference compound]

- Potential V, Li/Li^+ [5]: 4.4 V
Structure (SMILES): COc1c(C(C)(C)C)cc(C(C)(C)C)cc1C(C)(C)C [Example 9, 1,3,5-tri-t-butyl-2-methoxybenzene]

Structure (SMILES): COc1c([N+](=O)[O-])cc(C(C)(C)C)cc1[N+](=O)[O-] [Example 10, 5-t-butyl-1,3-dinitro-2-methoxybenzene]
- Potential V, Li/Li^+ [5]: 4.9 V

Structure (SMILES): COc1c(C(C)(C)C)cc([N+](=O)[O-])c(C)c1[N+](=O)[O-] [Example 11, 2-t-butyl-4,6-dinitro-5-methylanisole]
- Potential V, Li/Li^+ [5]: 4.9 V
